Measurements published in publication PMC11249637, “Interaction of the Atypical Tetracyclines Chelocardin and Amidochelocardin with Renal Drug Transporters” (ACS Pharmacology & Translational Science, 2024).

Columns and labels:
hOAT4 = target: T1, hOAT4 (Homo sapiens, UniProt Q9NSA0); experiment: Two-point inhibition of hOAT4-mediated ES uptake in transfected HEK293 cells; assay type: in vitro ADME; settings: ES 1 μM, 1 min; for inhibitory effect on hOAT4 (in words): 1 and 10 μM; for enhanced uptake of substrate by hOAT4: at 10 μM
T1 construct: expressed in transfected cells; host or cells: HEK293
T1 sequence (Q9NSA0 1-550): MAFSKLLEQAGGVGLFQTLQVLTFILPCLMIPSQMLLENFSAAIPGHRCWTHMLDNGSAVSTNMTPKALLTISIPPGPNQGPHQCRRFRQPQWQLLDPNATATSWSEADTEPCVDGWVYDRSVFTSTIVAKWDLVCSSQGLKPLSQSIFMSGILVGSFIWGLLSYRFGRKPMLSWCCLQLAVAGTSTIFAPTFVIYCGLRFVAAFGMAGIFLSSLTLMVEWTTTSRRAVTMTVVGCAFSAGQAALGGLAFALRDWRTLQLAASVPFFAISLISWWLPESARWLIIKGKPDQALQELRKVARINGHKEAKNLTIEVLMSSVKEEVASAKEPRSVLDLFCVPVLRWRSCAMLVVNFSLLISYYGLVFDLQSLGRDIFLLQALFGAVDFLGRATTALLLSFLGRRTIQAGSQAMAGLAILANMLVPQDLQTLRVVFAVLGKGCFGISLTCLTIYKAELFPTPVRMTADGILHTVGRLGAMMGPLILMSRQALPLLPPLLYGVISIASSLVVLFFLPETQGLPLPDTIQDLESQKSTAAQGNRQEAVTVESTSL
Procedure: (§1) Well-characterized mOct1-, mOct2-, mOat1-, mOat2-, mOat3-, mMate1-, hOAT1-, hOAT3-, hOAT4-, hMRP2-, mMdr1a- and mMdr1b-transfected HEK293 cells and the respective vector-transfected control HEK293 cells were used.[42],[51],[52] All HEK293 cells (transporter-transfected and vector-transfected) were cultured in DMEM (Sigma, high glucose, 10% FBS, 1% penicillin (10,000 Units/mL)/streptomycin (10 mg/mL)) at 37°C under 5% CO2 in humidified atmosphere. The cells were routinely checked for the absence of mycoplasma infection. For the preparation of HEK293 cell monolayers, 24-well plates were pretreated with a poly-D-lysine hydrobromide solution (0.1 mg/mL). Each well was coated with 0.5 mL of poly-D-lysine solution and incubated for at least 15 min. After complete removal of the solution, the plates were dried for 30 min. Cells (vector-transfected and transporter-transfected) treated with trypsin were immediately seeded into 24-well plates and cultured for 3 days before being used for transport experiments.
For the uptake assay, the growth medium was aspirated, and each well was rinsed three times with 0.5 mL of incubation buffer (HBSS supplemented with 20 mM HEPES, pH 7.4) and incubated for 20 min at 37 °C. Afterward, buffers were removed, and 200 μL of the incubation buffer containing a radiolabeled substrate and the nonlabeled CHD and CDCHD or reference inhibitor (Table S1), respectively, was added to each well and incubated at 37 °C for designated time intervals. After incubation, uptake was terminated by aspirating the reaction mixture and washing the cells three times with 0.4 mL of ice-cold incubation buffer. Cells were solubilized with 0.6 mL of 1N NaOH overnight and transferred into scintillation vials. ^3H and ^14C contents were measured after the addition of 2.5 mL of scintillator in a liquid scintillation counter.
The cellular protein amount was determined in parallel for each cell line (vector- and transporter-transfected) from six wells in a different 24-well reference plate using the Bradford method. For the two-point inhibition assays, each, CHD and CDCHD, was added in two single concentrations of 1 and 10 μM to characterize their inhibitory potential. Incubation was terminated after 1 min. All experiments were conducted in triplicate for every transporter.
The ES incubation buffer contained ^3H-ES and nonlabeled ES in a final concentration of 1 μM. Inhibition of hOAT4-mediated ES uptake by 10 μM BSP was performed as a control experiment.
(§2) The inhibitory effect (I(%)) was calculated according to the formula: [drawing 5] […]

mOct1 = target: T2, mOct1 (Mus musculus, UniProt O08966); experiment: Two-point inhibition of mOct1-mediated MPP uptake in transfected HEK293 cells; assay type: in vitro ADME; settings: 1 and 10 μM; MPP 10 μM, 1 min
T2 construct: expressed in transfected cells; host or cells: HEK293
T2 sequence (O08966 1-556): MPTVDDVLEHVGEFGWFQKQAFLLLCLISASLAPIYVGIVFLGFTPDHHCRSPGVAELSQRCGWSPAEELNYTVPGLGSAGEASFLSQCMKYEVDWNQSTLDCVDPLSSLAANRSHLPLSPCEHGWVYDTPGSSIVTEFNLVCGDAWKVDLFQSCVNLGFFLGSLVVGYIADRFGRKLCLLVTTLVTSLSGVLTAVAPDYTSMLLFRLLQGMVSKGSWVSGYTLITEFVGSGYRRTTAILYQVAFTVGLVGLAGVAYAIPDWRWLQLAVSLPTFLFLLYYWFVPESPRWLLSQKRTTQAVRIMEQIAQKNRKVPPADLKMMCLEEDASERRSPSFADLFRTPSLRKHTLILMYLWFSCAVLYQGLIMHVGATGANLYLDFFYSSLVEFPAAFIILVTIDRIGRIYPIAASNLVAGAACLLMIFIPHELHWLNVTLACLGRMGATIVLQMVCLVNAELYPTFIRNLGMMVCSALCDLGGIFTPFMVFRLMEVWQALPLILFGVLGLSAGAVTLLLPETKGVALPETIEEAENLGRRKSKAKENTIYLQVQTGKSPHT
Procedure: as §1, with “Each well was coated with 0.5 mL of poly-D-lysine solution and incubated for at least 15 min. After complete removal of the solution, the plates were dried for 30 min. Cells (vector-transfected and transporter-transfected) treated with trypsin were immediately seeded into 24-well plates and cultured for 3 days before being used for transport experiments.” left out
For the uptake assay, the growth medium was aspirated, and each well was rinsed three times with 0.5 mL of incubation buffer (HBSS supplemented with 20 mM HEPES, pH 7.4) and incubated for 20 min at 37 °C. […] Cells were solubilized with 0.6 mL of 1N NaOH overnight and transferred into scintillation vials. ^3H and ^14C contents were measured after the addition of 2.5 mL of scintillator in a liquid scintillation counter.
The cellular protein amount was determined in parallel for each cell line (vector- and transporter-transfected) from six wells in a different 24-well reference plate using the Bradford method. […]
as §2

SMILES | inhibitory effect on hOAT4 (in words) (hOAT4) | enhanced uptake of substrate by hOAT4 (hOAT4) | inhibitory effect on mOct1 (in words) (mOct1)
Cc1ccc2c(C)c3c(c(O)c2c1O)C(=O)[C@@]1(O)C(=O)C(C(N)=O)=C(O)[C@@H](N)[C@H]1C3 [CDCHD, amidochelocardin] | No inhibitory effect | up to 40% | slight inverse inhibitory effect
CC(=O)C1=C(O)[C@@H](N)[C@H]2Cc3c(c(O)c4c(O)c(C)ccc4c3C)C(=O)[C@@]2(O)C1=O [CHD, chelocardin] | No inhibitory effect | up to 40% | No inhibitory effect
